Usually MIC stands for the least concentration at which growth counts as inhibited.

What all share (type): functional
The subject of one experiment is Candida albicans. As to the kind of experiment: Antifungal activity against Candida albicans assessed as inhibition of microbial growth by two fold broth microdilution method. For orientation: In broth dilution the organism is exposed to a series of concentrations in liquid medium.
Another experiment deals with Pichia kudriavzevii. As to the kind of experiment: Antifungal activity against Candida krusei assessed as inhibition of microbial growth by two fold broth microdilution method.
The next experiment relates to Nakaseomyces glabratus. As to the kind of experiment: Antifungal activity against Candida glabrata assessed as inhibition of microbial growth by two fold broth microdilution method.
Another experiment deals with Aspergillus fumigatus. As to the kind of experiment: Antifungal activity against Aspergillus fumigatus assessed as inhibition of microbial growth by two fold broth microdilution method.
For a further experiment, the system named is Candida tropicalis. The experiment can be described thus: Antifungal activity against Candida tropicalis assessed as inhibition of microbial growth by two fold broth microdilution method.

For the molecule `O=C(/C=C/c1ccc2ccccc2c1)NC(Cn1ccnc1)C(=O)NCc1ccccc1` (stereo not given), the minimal inhibitory concentration (MIC) with Candida albicans was found to be 2 µg/mL; with Pichia kudriavzevii, 4 µg/mL; in the experiment on Nakaseomyces glabratus, 0.5 µg/mL; in the experiment with Aspergillus fumigatus it was 8 µg/mL; in the experiment with Candida tropicalis, 0.5 µg/mL.

For `O=C(/C=C/c1ccc2ccccc2c1)NCC(=O)NCc1cccnc1`, the MIC in the experiment on Candida albicans was 0.5 µg/mL; with Pichia kudriavzevii, 2 µg/mL; in the experiment on Nakaseomyces glabratus it was 0.5 µg/mL; in the experiment with Aspergillus fumigatus it was above 16 µg/mL; in the experiment on Candida tropicalis, 2 µg/mL.

`O=C(/C=C/c1ccc2c(c1)OCCO2)NC(Cn1ccnc1)C(=O)NCc1ccccc1` (stereo not given): the minimum inhibitory concentration (MIC) is 0.5 µg/mL in the experiment on Candida albicans; 2 µg/mL with Pichia kudriavzevii; 1 µg/mL in the experiment on Nakaseomyces glabratus; above 16 µg/mL with Aspergillus fumigatus; 0.5 µg/mL in the experiment with Candida tropicalis.

Regarding `O=C(/C=C/c1ccc2c(c1)OCCO2)NCC(=O)NCc1cccnc1`, the minimal inhibitory concentration (MIC) was 2 µg/mL with Candida albicans; 4 µg/mL in the experiment on Pichia kudriavzevii; 4 µg/mL in the experiment with Nakaseomyces glabratus; above 16 µg/mL in the experiment on Aspergillus fumigatus; 2 µg/mL in the experiment on Candida tropicalis.

Turning to `O=C(NCc1ccncc1)C(=O)N/N=C/c1ccc2ccccc2c1`, the minimal inhibitory concentration (MIC) in the experiment with Candida albicans was 0.25 µg/mL; with Pichia kudriavzevii, 0.25 µg/mL; with Nakaseomyces glabratus it was 0.5 µg/mL; with Aspergillus fumigatus, above 16 µg/mL; with Candida tropicalis, 0.5 µg/mL.

The values above are taken from ChEMBL document CHEMBL4765419, “Design, synthesis and bioactivity evaluation of novel arylalkene-amide derivatives as dual-target antifungal inhibitors” (Eur J Med Chem, 2020).
